System: rat mesenteric artery sections damaged by oxidized LDL
Experiment: Vascular endothelium-dependent relaxation response to acetylcholine in rat vessel cross-sections damaged by oxidized LDL
Format: cell-based
Settings: for ACh concentration at which the relaxation degree of 50% was achieved: 30 min perfusion, then oxidized LDL 100 μg/mL for 60 min, sections contracted with 5 μM phenylephrine
Protocol: The ability of a compound of the present invention to ameliorate the vascular tone-regulating function of vascular endothelium was evaluated by assaying vascular endothelium-dependent relaxation response to acetylcholine in the presence of a compound of the present invention using cross-section samples of rat vessels damaged by oxidized low-density lipoprotein (oxidized LDL).
Oxidized LDL is a substance derived from an endogenous low-density lipoprotein (LDL) via a exposure to a oxidative stress, and has been reported to be involved in the mechanism by which vascular endothelial cells are damaged (Tanner F C, Noll G, Boulanger C M, Luscher T F, Oxidized low density lipoproteins inhibit relaxations of porcine coronary arteries. Role of scavenger receptor and endothelium-derived nitric oxide. Circulation. 1991, 83:2012-20). The oxidized LDL used in this test was prepared by incubating rabbit LDL suspended at 200 μg/mL in phosphate buffered physiological saline (PBS) prepared by the method of Havel et al. (Havel R. J. et al., J. Clin. Invest., 34, 1345 (1955)) with 5 μM CuSO4 at 37° C. for 24 hours.
First, the mesenteric artery was collected from a rat euthanized by carbon dioxide inhalation into Krebs buffer (containing 118.0 mM NaCl, 4.7 mM KCl, 25.0 mM NaCO3, […] CaCl, 1.5 mM MgSO4 and 10 mM glucose), and the artery was cut into 2 mm wide annular cross sections. Then, the sections were suspended in a Magnus bath where they were equilibrated under a tension of 3 mN for 60 minutes. After equilibration, the sections were contracted with a 5 μM phenylephrine solution in Krebs buffer.
After confirming that a stable contraction was achieved, the perfusion solution was replaced with Krebs buffer containing 20 μM each of test compounds. The test compounds were the compound of the present invention, 4,6-di-t-butyl-5-hydroxy-2,2-di-n-pentyl-2,3-dihydrobenzofuran, and comparative compounds, probucol and α-tocopherol. Probucol is a compound reported to ameliorate the vascular tone-regulating function of vascular endothelium by preventing the decrease of the EDRF-secreting ability of vascular endothelial cells. α-tocopherol is a fat-soluble endogenous antioxidant known to inhibit the oxidation of LDL.
After perfusion for 30 minutes, oxidized LDL was added to a concentration of 100 μg/mL. After equilibration in the perfusion solution containing oxidized LDL for 60 minutes, acetylcholine (ACh) was cumulatively added at concentrations from 1×10^−10 M to 1×10^−5 M. At equally spaced ACh concentrations, the length of each section was measured to calculate the degree of relaxation (%) by dividing the difference between the lengths of the section before and after relaxation by the length before relaxation. This relaxation is a phenomenon resulting from the acetylcholine-induced secretion of EDRF from vascular endothelial cells.
In addition to the experiment described above, a similar experiment was performed except that the perfusion in Krebs buffer containing test compounds and the equilibration with oxidized LDL were omitted (control experiment) or except that the perfusion in Krebs buffer containing test compounds was omitted but the equilibration with oxidized LDL was included (oxidized LDL experiment).
The procedure of test example 1 was followed except that the concentration of the test compound was increased from 20 μM to 50 μM.

[1] = 20 μM test compound, compared with the oxidized LDL experiment, FIG. 1

Row | Compound | ACh concentration at which the relaxation degree of 50% was achieved (20 μM test compound, FIG. 1) [nM] | Ameliorating effect on the vascular tone-regulating function of vascular endothelium damaged by oxidized LDL [1] | Ameliorating effect on the vascular tone-regulating function of vascular endothelium damaged by oxidized LDL (50 μM test compound, compared with the control, FIG. 2)
1 | CC(C)(Sc1cc(C(C)(C)C)c(O)c(C(C)(C)C)c1)Sc1cc(C(C)(C)C)c(O)c(C(C)(C)C)c1 [probucol] | 121 | – | –
2 | CCCCCC1(CCCCC)Cc2c(cc(C(C)(C)C)c(O)c2C(C)(C)C)O1 [compound of the present invention, 4,6-di-t-butyl-5-hydroxy-2,2-di-n-pentyl-2,3-dihydrobenzofuran] | 126 | ameliorated the vascular tone-regulating function of vascular endothelium | adverse influence of oxidized LDL-induced damages to vascular endothelial cells on the vascular tone-regulating function was completely removed
3 | Cc1c(C)c2c(c(C)c1O)CC[C@@](C)(CCC[C@H](C)CCC[C@H](C)CCCC(C)C)O2 [α-tocopherol] | 261 | does not ameliorate the vascular tone-regulating function of vascular endothelium | –
